In patent publication US20220002283A1 (Mylan Laboratories Limited, priority 2019, published 2022):

Tests used:
[1] = Solid state stability, PXRD; assay type: physicochemical; design: key: X: crystalline; S: stable
Protocol: Thus, the X-ray diffraction patterns of the co-crystals of provided herein were measured on a PANalytical X'PertPRO Powder X-ray diffractometer equipped with goniometer of θ/θ configuration and X'celerator detector. The Cu-anode X-ray tube was operated at 45 kV and 40 mA. The experiments were conducted over the 2θ range of 2.0°-50.0°, 0.030° step size and 189.865 time per step (seconds) and all the co-crystals were characterized with above mentioned method.
(§1) The samples were analyzed by PXRD, assay and related substances by HPLC.

[2] = Solid state stability, HPLC meloxicam co-crystal assay; assay type: physicochemical; details: for M %: Meloxicam Assay % / A %: Co-former Assay %: samples as per Examples 1, 2, 3
Protocol: • Instrumentation: Waters HPLC system having 2695 model pump having UV/PDA detector with Empower chromatography software or its equivalent. • Column: (A) Unison UK C18 column; (B) YMC Trait C18 EXRS Column, 250×4.6 mm, 5.0 micron; (C) Water Atlantis T3, 250×4.6 mm, 5 micron. • Mobile Phase: (A) methanol-acetonitrile-dipotassium phosphate buffer; or (B) acetonitrile-Sodium sulfate buffer solution • Detection wavelength: 210 nm and 360 nm
as §1

[3] = Solid state stability, physical and chemical (PXRD and HPLC), overall finding
Protocol: as §1

[4] = Solid state stability, impurities by HPLC; assay type: physicochemical
Protocol: A Zorbax Eclipse XDB C18 column was used with the mobile phase of methanol-acetonitrile-10 mM phosphate buffer solution at the detection wavelength of 350 nm and 260 nm. • Instrumentation: Waters HPLC system having 2695 model pump having UV/PDA detector with Empower chromatography software or its equivalent. • Chemicals: Dipotassium hydrogen phosphate, orthophosphoric acid, acetonitrile, water, sodium hydroxide, methanol. • Column: Zorbax Eclipse XDB C18 column, 250×4.6 mm, 5 μm. • Elution: Gradient. • Flow rate: 0.8 mL/min.
as §1

[5] = 25° C./60% RH, 1 mo., samples as per Examples 1, 2, 3
[6] = 25° C./60% RH, 2 mo., samples as per Examples 1, 2, 3
[7] = 25° C./60% RH, 3 mo., samples as per Examples 1, 2, 3
[8] = 25° C./60% RH, Initial, samples as per Examples 1, 2, 3
[9] = 40° C./75% RH, 1 mo., samples as per Example 7, 17 or 14
[10] = 40° C./75% RH, 1 mo., samples as per Examples 1, 2, 3
[11] = 40° C./75% RH, 2 mo., samples as per Example 7, 17 or 14
[12] = 40° C./75% RH, 2 mo., samples as per Examples 1, 2, 3
[13] = 40° C./75% RH, 3 mo., samples as per Examples 1, 2, 3
[14] = 40° C./75% RH, Initial, samples as per Example 7, 17 or 14
[15] = 40° C./75% RH, Initial, samples as per Examples 1, 2, 3
[16] = 40° C./75% RH and 25° C./60% RH, three months
[17] = 25° C./60% RH, 1 mo., samples as per Example 7 or 17
[18] = 25° C./60% RH, 2 mo., samples as per Example 7 or 17
[19] = 25° C./60% RH, 3 mo., samples as per Example 7 or 17
[20] = 25° C./60% RH, Initial, samples as per Example 7 or 17
[21] = 40° C./75% RH, 3 mo., samples as per Example 7 or 17

## Cc1cnc(NC(=O)C2=C(O)c3ccccc3S(=O)(=O)N2C)s1.O=C(O)c1ccccc1O [Meloxicam:Salicylic acid Form III (1:1)]
[1]; [5]
  PXRD: S
[1]; [6]
  PXRD: S
[1]; [7]
  PXRD: S
[1]; [8]
  PXRD: X
[1]; [9]
  PXRD: S
[1]; [10]
  PXRD: S
[1]; [11]
  PXRD: S
[1]; [12]
  PXRD: S
[1]; [13]
  PXRD: S
[1]; [14]
  PXRD: X
[1]; [15]
  PXRD: X
[2]; 25° C./60% RH, 1 mo.
  M %: Meloxicam Assay %: 71.7%
[2]; 25° C./60% RH, 2 mo.
  A %: Co-former Assay %: 27.2%
  M %: Meloxicam Assay %: 72.0%
[2]; 25° C./60% RH, 3 mo.
  A %: Co-former Assay %: 27.6%
  M %: Meloxicam Assay %: 72.1%
[2]; 25° C./60% RH, Initial
  A %: Co-former Assay %: 27.5%
  M %: Meloxicam Assay %: 71.3%
[2]; [9]
  Assay (% by HPLC) M % (Meloxicam Assay %): 71.4%
[2]; 40° C./75% RH, 1 mo.
  M %: Meloxicam Assay %: 72.0%
[2]; [11]
  Assay (% by HPLC) M % (Meloxicam Assay %): 71.2%
[2]; 40° C./75% RH, 2 mo.
  A %: Co-former Assay %: 27.0%
  M %: Meloxicam Assay %: 71.5%
[2]; 40° C./75% RH, 3 mo.
  A %: Co-former Assay %: 27.4%
  M %: Meloxicam Assay %: 71.8%
[2]; [14]
  Assay (% by HPLC) M % (Meloxicam Assay %): 71.1%
[2]; 40° C./75% RH, Initial
  A %: Co-former Assay %: 27.5%
  M %: Meloxicam Assay %: 71.3%
[3]; [16]
  physical and chemical stability: physically and chemically stable
[3]; 40° C./75% RH, at least 2 months
  physical and chemical stability: physically and chemically stable
[4]; [9]
  Impurities (% w/w, by HPLC) Ethyl Meloxicam: 0.003 % w/w
  Impurities (% w/w, by HPLC) Other* (any other individual impurity): 0.01 % w/w
  Impurities (% w/w, by HPLC) Total: 0.04 % w/w
[4]; [11]
  Impurities (% w/w, by HPLC) Methyl Meloxicam: 0.001 % w/w
  Impurities (% w/w, by HPLC) Other* (any other individual impurity): 0.01 % w/w
  Impurities (% w/w, by HPLC) Total: 0.01 % w/w
[4]; [14]
  Impurities (% w/w, by HPLC) Other* (any other individual impurity): 0.01 % w/w
  Impurities (% w/w, by HPLC) Total: 0.01 % w/w
[4]; any timepoint from initiation up to 2 months, 40° C./75% RH
  Meloxicam Related Compounds A, B, C, and D by HPLC: ^#Meloxicam Related Compounds A, B, C, and D (see Table 4a) were not detectable at any timepoint from initiation up to 2 months.

## CC(=O)Oc1ccccc1C(=O)O.Cc1cnc(NC(=O)C2=C(O)c3ccccc3S(=O)(=O)N2C)s1 [Meloxicam:Acetylsalicylic acid (1:1)]
[1]; [5]
  PXRD: S
[1]; [6]
  PXRD: S
[1]; [7]
  PXRD: S
[1]; [8]
  PXRD: X
[1]; [10]
  PXRD: S
[1]; [12]
  PXRD: S
[1]; [13]
  PXRD: S
[1]; [15]
  PXRD: X
[2]; 25° C./60% RH, 1 mo.
  A %: Co-former Assay %: 33.4%
  M %: Meloxicam Assay %: 66.0%
[2]; 25° C./60% RH, 2 mo.
  A %: Co-former Assay %: 33.0%
  M %: Meloxicam Assay %: 66.0%
[2]; 25° C./60% RH, 3 mo.
  A %: Co-former Assay %: 33.0%
  M %: Meloxicam Assay %: 65.7%
[2]; 25° C./60% RH, Initial
  A %: Co-former Assay %: 33.6%
  M %: Meloxicam Assay %: 65.7%
[2]; 40° C./75% RH, 1 mo.
  A %: Co-former Assay %: 33.4%
  M %: Meloxicam Assay %: 65.9%
[2]; 40° C./75% RH, 2 mo.
  A %: Co-former Assay %: 32.8%
  M %: Meloxicam Assay %: 65.8%
[2]; 40° C./75% RH, 3 mo.
  A %: Co-former Assay %: 33.0%
  M %: Meloxicam Assay %: 65.4%
[2]; 40° C./75% RH, Initial
  A %: Co-former Assay %: 33.6%
  M %: Meloxicam Assay %: 65.7%
[3]; [16]
  physical and chemical stability: physically and chemically stable

## Cc1cnc(NC(=O)C2=C(O)c3ccccc3S(=O)(=O)N2C)s1.O=C(O)c1ccc2ccccc2c1O
[1]; [17]
  PXRD: S
[1]; [5]
  PXRD: S
[1]; [18]
  PXRD: S
[1]; [6]
  PXRD: S
[1]; [19]
  PXRD: S
[1]; [7]
  PXRD: S
[1]; [20]
  PXRD: X
[1]; [8]
  PXRD: X
[1]; [9]
  PXRD: S
[1]; [10]
  PXRD: S
[1]; [11]
  PXRD: S
[1]; [12]
  PXRD: S
[1]; [21]
  PXRD: S
[1]; [13]
  PXRD: S
[1]; [14]
  PXRD: X
[1]; [15]
  PXRD: X
[2]; [17]
  Assay (% by HPLC) M % (Meloxicam Assay %): 65.0%
[2]; 25° C./60% RH, 1 mo.
  A %: Co-former Assay %: 34.5%
  M %: Meloxicam Assay %: 64.7%
[2]; [18]
  Assay (% by HPLC) M % (Meloxicam Assay %): 63.5%
[2]; 25° C./60% RH, 2 mo.
  A %: Co-former Assay %: 35.0%
  M %: Meloxicam Assay %: 65.0%
[2]; [19]
  Assay (% by HPLC) M % (Meloxicam Assay %): 64.3%
[2]; 25° C./60% RH, 3 mo.
  A %: Co-former Assay %: 34.0%
  M %: Meloxicam Assay %: 64.6%
[2]; [20]
  Assay (% by HPLC) M % (Meloxicam Assay %): 65.1%
[2]; 25° C./60% RH, Initial
  A %: Co-former Assay %: 34.2%
  M %: Meloxicam Assay %: 64.3%
[2]; [9]
  Assay (% by HPLC) M % (Meloxicam Assay %): 64.7%
[2]; 40° C./75% RH, 1 mo.
  A %: Co-former Assay %: 34.9%
  M %: Meloxicam Assay %: 64.9%
[2]; [11]
  Assay (% by HPLC) M % (Meloxicam Assay %): 64.0%
[2]; 40° C./75% RH, 2 mo.
  M %: Meloxicam Assay %: 64.8%
[2]; [21]
  Assay (% by HPLC) M % (Meloxicam Assay %): 64.4%
[2]; 40° C./75% RH, 3 mo.
  A %: Co-former Assay %: 34.2%
  M %: Meloxicam Assay %: 65.5%
[2]; [14]
  Assay (% by HPLC) M % (Meloxicam Assay %): 65.2%
[2]; 40° C./75% RH, Initial
  A %: Co-former Assay %: 34.2%
  M %: Meloxicam Assay %: 64.3%
[3]; [16]
  physical and chemical stability: physically and chemically stable
[4]; [17]
  Impurities (% w/w, by HPLC) Methyl Meloxicam: 0.01 % w/w
  Impurities (% w/w, by HPLC) Other* (any other individual impurity): 0.03 % w/w
  Impurities (% w/w, by HPLC) Total: 0.08 % w/w
[4]; [18]
  Impurities (% w/w, by HPLC) Methyl Meloxicam: 0.01 % w/w
  Impurities (% w/w, by HPLC) Other* (any other individual impurity): 0.03 % w/w
  Impurities (% w/w, by HPLC) Total: 0.13 % w/w
[4]; [19]
  Impurities (% w/w, by HPLC) Methyl Meloxicam: 0.01 % w/w
  Impurities (% w/w, by HPLC) Other* (any other individual impurity): 0.03 % w/w
  Impurities (% w/w, by HPLC) Total: 0.08 % w/w
[4]; [20]
  Impurities (% w/w, by HPLC) Methyl Meloxicam: 0.01 % w/w
  Impurities (% w/w, by HPLC) Other* (any other individual impurity): 0.02 % w/w
  Impurities (% w/w, by HPLC) Total: 0.05 % w/w
[4]; [9]
  Impurities (% w/w, by HPLC) Methyl Meloxicam: 0.01 % w/w
  Impurities (% w/w, by HPLC) Other* (any other individual impurity): 0.03 % w/w
  Impurities (% w/w, by HPLC) Total: 0.09 % w/w
[4]; [11]
  Impurities (% w/w, by HPLC) Methyl Meloxicam: 0.01 % w/w
  Impurities (% w/w, by HPLC) Other* (any other individual impurity): 0.03 % w/w
  Impurities (% w/w, by HPLC) Total: 0.13 % w/w
[4]; [21]
  Impurities (% w/w, by HPLC) Methyl Meloxicam: 0.01 % w/w
  Impurities (% w/w, by HPLC) Other* (any other individual impurity): 0.03 % w/w
  Impurities (% w/w, by HPLC) Total: 0.10 % w/w
[4]; [14]
  Impurities (% w/w, by HPLC) Methyl Meloxicam: 0.01 % w/w
  Impurities (% w/w, by HPLC) Other* (any other individual impurity): 0.03 % w/w
  Impurities (% w/w, by HPLC) Total: 0.06 % w/w
[4]; any timepoint from initiation up to 3 months, 40° C./75% RH and 25° C./60% RH
  Meloxicam Related Compounds A, B, C, and D by HPLC: ^#Meloxicam Related Compounds A, B, C, and D (see Table 4) were not detectable at any timepoint from initiation up to 3 months.
